According to ChEMBL document CHEMBL1201862, “PubChem BioAssay data set” (2004):
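The compound was tested at five concentrations on cells cultured in 96-well plates, with a 48-hour exposure period. GI50: concentration for 50% inhibition of growth.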 The source made the active and inactive calls. Cut-off read from the data, not from the text of the source: active = GI50 up to about 1.1 µM and inactive = higher.

Columns and labels:
Assay in all cases: growth of human tumour cells (NCI), 48 h
[1] = system: A549
[2] = system: BT-549
[3] = system: DU-145
[4] = system: EKVX
[5] = system: HCT-116
[6] = system: HOP-62
[7] = system: IGROV-1
[8] = system: MCF7
[9] = system: Malme-3M
[10] = system: NCI-H226
[11] = system: OVCAR-4
[12] = system: OVCAR-5
[13] = system: PC-3
[14] = system: SF-295
[15] = system: SK-MEL-2
[16] = system: SK-MEL-5
[17] = system: T47D
[18] = system: TK-10
[19] = system: UACC-257
[20] = system: UO-31

Measured: GI50

BC(=O)NC(CC(C)C)C(=O)NCC(=O)NC1c2ccsc2C(=O)C1O.CN(C)C (stereo not given)
inactive: [1] > 100 µM | [2] > 100 µM | [3] > 100 µM | [4] > 100 µM | [5] > 100 µM | [6] > 100 µM | [7] > 100 µM | [8] 2.37 µM | [9] > 100 µM | [10] 95.5 µM | [11] > 100 µM | [12] > 100 µM | [13] > 100 µM | [14] > 100 µM | [15] > 100 µM | [16] > 100 µM | [17] > 100 µM | [18] > 100 µM | [19] > 100 µM | [20] > 100 µM
